Data taken from patent US4244883A, “2a,2b-Dihomo-15-alkyl-PGF2β compounds” (The Upjohn Company, priority 1979, dated 1981).

Columns and labels:
gastric lesions = test: Cytoprotective effects: inhibition of ethanol-induced gastric lesions (ulcers) in female rats; type: in vivo, rat; settings: 2 mg/kg oral; for inhibition at 2 mg/kg: Rattus norvegicus, female rats 205-220 g, 30 min before 1 ml ethanol (80%) orally, examined 1 h after ethanol, read-out: % Inhibition (percent reduction in the number of gastric lesions in the treated group as compared to the control group); for cytoprotective effect (in words): female rats, 80% ethanol-induced gastric lesions
Experimental: Female rats of 205-220 g are deprived of food during the morning. At 1500 hrs, water is removed and the animals are placed in individual cages which prevent them from consuming hair or feces. The following morning, the prostaglandin analogs are administered orally at a fixed dose of 2 mg/kg in 1 ml of water containing 5% ethanol and 1% emulphor. Emulphor EL-620 is used. Thirty minutes later, 1 ml of ethanol (80%) is given orally to induce gastric lesions. One hour after ethanol administration, the animals are sacrificed with carbon dioxide, their stomachs disected out and opened along the greater curvature. Visual examination with a binocular magnifier is undertaken to determine the presence of necrotic ulcerations. The average number of ulcers per stomach is recorded. The control group of rats receiving only vehicle (ethanol 5%, emulphor 1% in water) prior to the administration of 80% ethanol is employed. From the number of ulcerations in control group animals, a percent inhibition is determined which is the percent reduction in the number of gastric lesions in the treated group as compared to the control group.
Following the procedure of Example 1, 2a,2b-dihomo-15-epi-PGF2β, methyl ester is compared for gastrointestinal cytoprotective activity with 2a,2b-dihomo-15-epi-15-methyl-PGF2β, methyl ester.

intestinal lesions = settings: rat; pre-treatment; Robert, et al., Gastroenterology 69:1045 (1974); cited from earlier work

SMILES: CCCCC[C@@](C)(O)/C=C/[C@@H]1[C@@H](C/C=C\CCCCCC(=O)OC)[C@H](O)C[C@H]1O [2a,2b-dihomo-15-epi-15-methyl-PGF2β, methyl ester]
- inhibition at 2 mg/kg (gastric lesions): 100%
- cytoprotective effect (in words) (gastric lesions): totally cytoprotective

SMILES: CCCCC[C@@H](O)/C=C/[C@@H]1[C@@H](C/C=C\CCCCCC(=O)OC)[C@H](O)C[C@H]1O [2a,2b-dihomo-15-epi-PGF2β, methyl ester]
- inhibition at 2 mg/kg (gastric lesions): 2%
- cytoprotective effect (in words) (gastric lesions): negligable cytoprotective effects

SMILES: CCCCC[C@](C)(O)/C=C/[C@@H]1[C@@H](C/C=C\CCCCCC(=O)OC)[C@H](O)C[C@H]1O [2a,2b-dihomo-15-methyl-PGF2β, methyl ester]
- inhibition at 2 mg/kg (gastric lesions): 96%
- cytoprotective effect (in words) (gastric lesions): virtually totally cytoprotective

SMILES: CCCCC[C@H](O)/C=C/[C@@H]1[C@@H](C/C=C\CCCCCC(=O)OC)[C@H](O)C[C@H]1O [2a,2b-dihomo-PGF2β, methyl ester]
- inhibition at 2 mg/kg (gastric lesions): 32%
- cytoprotective effect (in words) (gastric lesions): only modest cytoprotective effects

SMILES: CCCCC[C@H](O)/C=C/[C@H]1[C@H](O)CC(=O)[C@@H]1C/C=C\CCCC(=O)O [PGE2]
- effect on indomethacin-induced intestinal lesions (in words) (intestinal lesions): effective in reducing indomethacin-inducedintestinal lesions
